By IC50 is commonly meant the concentration needed to halve the response being measured. The low end stands for higher potency, the high end for lower potency.

The values below come from US11560385B2, “Proteasome activity enhancing compounds” (Proteostasis Therapeutics, Inc., priority 2018, dated 2023).

Each structure is given as a SMILES string.

USP14, sequence (P54578 whole entry, looked up): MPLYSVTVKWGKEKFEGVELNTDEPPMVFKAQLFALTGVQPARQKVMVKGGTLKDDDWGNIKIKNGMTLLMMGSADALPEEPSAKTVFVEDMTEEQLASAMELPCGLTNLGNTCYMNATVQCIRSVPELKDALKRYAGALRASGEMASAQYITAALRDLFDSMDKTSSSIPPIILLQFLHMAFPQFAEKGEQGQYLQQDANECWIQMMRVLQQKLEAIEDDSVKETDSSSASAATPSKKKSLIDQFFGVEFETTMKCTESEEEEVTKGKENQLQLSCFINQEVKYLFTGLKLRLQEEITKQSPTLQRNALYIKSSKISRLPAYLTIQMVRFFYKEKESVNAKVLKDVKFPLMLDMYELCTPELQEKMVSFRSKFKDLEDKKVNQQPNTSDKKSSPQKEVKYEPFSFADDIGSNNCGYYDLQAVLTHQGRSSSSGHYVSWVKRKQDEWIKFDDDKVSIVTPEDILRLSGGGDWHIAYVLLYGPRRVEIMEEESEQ

The assay addresses USP14 (Homo sapiens (Human), UniProt P54578). Briefly: Usp14 inhibition assay (Example 57B, B-series compounds). In kind it is biochemical. The settings on record: IC50 class; average value from a minimum of two experimental determinations. The source says: Example 57B: Usp14 Inhibition Assay
The IC50 values in the Table below represent the average value from a minimum of two experimental determinations.
In turn, `Cc1c(C(=O)CN2C3CCC2CC3)cc(CCCCC#N)n1-c1ccc(Cl)cc1` [Example 31B, 5-(4-(2-(7-Azabicyclo[2.2.1]heptan-7-yl)acetyl)-1-(4-chlorophenyl)-5-methyl-1H-pyrrol-2-yl)pentanenitrile] showed an IC50 of 0.05 to 0.5 µM.
In the case of `Cc1c(C(=O)CN2C3CCC2CC3)cc(/C=C/CCS(C)(=O)=O)n1-c1ccc(C#N)cc1` [Example 35B, (E)-4-(3-(2-(7-Azabicyclo[2.2.1]heptan-7-yl)acetyl)-2-methyl-5-(4-(methylsulfonyl)but-1-en-1-yl)-1H-pyrrol-1-yl)benzonitrile], the IC50 was below 0.05 µM.
Molecule `Cc1cc(C(=O)CN2C3CC4CC2CC(O)(C4)C3)c(C)n1-c1ccc(C#N)cc1` [Example 81B, 4-(3-(2-((5s,7s)-5-Hydroxy-2-azaadamantan-2-yl)acetyl)-2,5-dimethyl-1H-pyrrol-1-yl)benzonitrile] had an IC50 of 0.05 to 0.5 µM.
For the molecule `Cc1c(C(=O)CN2[C@@H]3CC[C@H]2[C@@H](O)C3)cc(-c2nccs2)n1-c1ccc(C#N)cc1` (racemic) [Example 146B, (±)-4-(3-(2-((1R,2R,4S)-2-Hydroxy-7-azabicyclo[2.2.1]heptan-7-yl)acetyl)-2-methyl-5-(thiazol-2-yl)-1H-pyrrol-1-yl)benzonitrile], the IC50 was above 0.5 µM.
Consider `Cc1c(C(=O)CN2C3CCC2[C@@H](O)C3)cc(C#N)n1-c1ccc(C#N)cc1` (mixture of isomers) [Example 47B, (±)-1-(4-Cyanophenyl)-4-(2-((2R)-2-hydroxy-7-azabicyclo[2.2.1]heptan-7-yl)acetyl)-5-methyl-1H-pyrrole-2-carbonitrile], for which the IC50 is below 0.05 µM.
`Cc1cc(C(=O)CN2[C@@H]3CC[C@H]2[C@@H](C)C3)c(C)n1-c1ccc(C#N)cc1` (racemic) [Example 100B, (±)-4-(2,5-Dimethyl-3-(2-((1S,2S,4R)-2-methyl-7-azabicyclo[2.2.1]heptan-7-yl)acetyl)-1H-pyrrol-1-yl)benzonitrile] displayed an IC50 above 0.5 µM.
`Cc1c(C(=O)CN2C3CCC2[C@@H](O)C3)cc(Cl)n1-c1ccc(C#N)cc1` (mixture of isomers) [Example 96B, (±)-4-(5-Chloro-3-(2-((2R)-2-hydroxy-7-azabicyclo[2.2.1]heptan-7-yl)acetyl)-2-methyl-1H-pyrrol-1-yl)benzonitrile] returned an IC50 of 0.05 to 0.5 µM.
With `Cc1c(F)c(C(=O)CN2[C@@H]3C=C(C(F)(F)F)[C@H]2CC3)c(C)n1-c1ccc(C#N)cc1` (racemic) [Example 149B, (±)-4-(3-Fluoro-2,5-dimethyl-4-(2-((1R,4S)-2-(trifluoromethyl)-7-azabicyclo[2.2.1]hept-2-en-7-yl)acetyl)-1H-pyrrol-1-yl)benzonitrile], the IC50 lay in the range of 0.05 to 0.5 µM.
The value for `Cc1cc(C(=O)CN2C3CC4CC(C3)CC2C4)c(C)n1-c1ccc(C#N)cc1` [Example 80B, 4-(3-(2-((5r,7r)-2-Azaadamantan-2-yl)acetyl)-2,5-dimethyl-1H-pyrrol-1-yl)benzonitrile] was below 0.05 µM; that for `Cc1c(C(=O)CN2C3CCC2[C@@H](O)C3)cc(CC(F)(F)F)n1-c1ccc(C#N)cc1` (mixture of isomers) [Example 115B, (±)-4-(3-(2-((2R)-2-Hydroxy-7-azabicyclo[2.2.1]heptan-7-yl)acetyl)-2-methyl-5-(2,2,2-trifluoroethyl)-1H-pyrrol-1-yl)benzonitrile] was 0.05 to 0.5 µM; that for `CO[C@H]1C[C@H]2CC[C@@H]1N2CC(=O)c1cc(C)n(-c2ccc(C#N)cc2)c1C` (racemic) [Example 70B, (±)-4-(3-(2-((1R,2R,4S)-2-Methoxy-7-azabicyclo[2.2.1]heptan-7-yl)acetyl)-2,5-dimethyl-1H-pyrrol-1-yl)benzonitrile] was 0.05 to 0.5 µM.
`Cc1c(C(=O)CN2[C@H]3CC[C@@H]2[C@@H](C)C3)cc(CC2COC2)n1-c1ccc(C#N)cc1` (racemic) [Example 56B, (±)-4-(2-Methyl-3-(2-((1R,2S,4S)-2-methyl-7-azabicyclo[2.2.1]heptan-7-yl)acetyl)-5-(oxetan-3-ylmethyl)-1H-pyrrol-1-yl)benzonitrile] yielded a 50% inhibitory concentration (IC50) of 0.05 to 0.5 µM.
The value for `Cc1c(F)c(C(=O)CN2[C@@H]3CC[C@H]2[C@H](C)C3)c(C)n1-c1ccc(C#N)cc1` (racemic) [Example 121B, (±)-4-(3-Fluoro-2,5-dimethyl-4-(2-((1S,2R,4R)-2-methyl-7-azabicyclo[2.2.1]heptan-7-yl)acetyl)-1H-pyrrol-1-yl)benzonitrile] was 0.05 to 0.5 µM; that for `Cc1c(C(=O)CN2C3CCC2[C@@H](O)C3)cc(CC2COC2)n1-c1ccc(C#N)cc1` (mixture of isomers) [Example 39B, (±)-4-(3-(2-((2R)-2-Hydroxy-7-azabicyclo[2.2.1]heptan-7-yl)acetyl)-2-methyl-5-(oxetan-3-ylmethyl)-1H-pyrrol-1-yl)benzonitrile] was below 0.05 µM; that for `Cc1cc(C(=O)CN2C3CCCC2CC3)c(C)n1-c1ccc(C#N)cc1` [Example 69B, 4-(3-(2-(8-Azabicyclo[3.2.1]octan-8-yl)acetyl)-2,5-dimethyl-1H-pyrrol-1-yl)benzonitrile] was 0.05 to 0.5 µM.
On to `Cc1cc(C(=O)CN2C3CCC2[C@@H](O)C3)c(C)n1-c1ccc(C#N)c(F)c1F` (mixture of isomers) [Example 99B, (±)-2,3-Difluoro-4-(3-(2-((2R)-2-hydroxy-7-azabicyclo[2.2.1]heptan-7-yl)acetyl)-2,5-dimethyl-1H-pyrrol-1-yl)benzonitrile], for which the IC50 was above 0.5 µM.
Molecule `Cc1cc(C(=O)CN2C3CCC2(C)CC3)c(C)n1-c1ccc(C#N)cc1` [Example 125B, 4-(2,5-Dimethyl-3-(2-(1-methyl-7-azabicyclo[2.2.1]heptan-7-yl)acetyl)-1H-pyrrol-1-yl)benzonitrile] gave an IC50 of 0.05 to 0.5 µM.
In the case of `Cc1c(C(=O)CN2C3CCC2[C@@H](O)C3)c(Cl)c(Cl)n1-c1ccc(C#N)cc1` (mixture of isomers) [Example 97B, (±)-4-(2,3-Dichloro-4-(2-((2R)-2-hydroxy-7-azabicyclo[2.2.1]heptan-7-yl)acetyl)-5-methyl-1H-pyrrol-1-yl)benzonitrile], the IC50 was 0.05 to 0.5 µM.
The same measure for `CSCCCCc1cc(C(=O)CN2C3CCC2[C@@H](O)C3)c(C)n1-c1ccc(C#N)cc1` (mixture of isomers) [Example 37B, (±)-4-(3-(2-((2R)-2-Hydroxy-7-azabicyclo[2.2.1]heptan-7-yl)acetyl)-2-methyl-5-(4-(methylthio)butyl)-1H-pyrrol-1-yl)benzonitrile]: below 0.05 µM; for `Cc1cc(C(=O)CN2[C@@H]3CC[C@@H]2CC(O)C3)c(C)n1-c1ccc(C#N)cc1` (stereo partly drawn) [Example 67B, 4-(3-(2-((1R,3s,5S)-3-hydroxy-8-azabicyclo[3.2.1]octan-8-yl)acetyl)-2,5-dimethyl-1H-pyrrol-1-yl)benzonitrile]: 0.05 to 0.5 µM.
`Cc1c(C(=O)CN2C3CCC2C(O)C3)cc([C@H](C)C2CCC2)n1-c1ccc(C#N)cc1` (stereo in doubt) [Example 151B, 4-(5-((R)-1-Cyclobutylethyl)-3-(2-((2R)-2-hydroxy-7-azabicyclo[2.2.1]heptan-7-yl)acetyl)-2-methyl-1H-pyrrol-1-yl)benzonitrile]: the IC50 is above 0.5 µM.
Molecule `Cc1cc(C(=O)CN2[C@@H]3CC[C@@H]2CC(O)(C(F)(F)F)C3)c(C)n1-c1ccc(C#N)cc1` (stereo partly drawn) [Example 75B, 4-(3-(2-((1R,3s,5S)-3-Hydroxy-3-(trifluoromethyl)-8-azabicyclo[3.2.1]octan-8-yl)acetyl)-2,5-dimethyl-1H-pyrrol-1-yl)benzonitrile] yielded an IC50 of 0.05 to 0.5 µM.
For the molecule `Cc1c(C(=O)CN2[C@@H]3CC[C@H]2[C@@H](O)C3)cc(CCCCC#N)n1-c1ccc(Cl)cc1` (racemic) [Example 29B, (±)-5-(1-(4-Chlorophenyl)-4-(2-((1R,2R,4S)-2-hydroxy-7-azabicyclo[2.2.1]heptan-7-yl)acetyl)-5-methyl-1H-pyrrol-2-yl)pentanenitrile], the IC50 was below 0.05 µM.
The molecule `Cc1c(C(=O)CN2C3CCC2[C@@H](O)C3)cc(CCCCS(C)(=O)=O)n1-c1ccc(C#N)cc1` (mixture of isomers) [Example 8B, (±)-4-(3-(2-((1R,2R,4S)-2-Hydroxy-7-azabicyclo[2.2.1]heptan-7-yl)acetyl-2-methyl-5-(4-(methylsulfonyl)butyl)-1H-pyrrol-1-yl)benzonitrile] had an IC50 below 0.05 µM.
`Cc1c(C(=O)CN2[C@H]3CC[C@@H]2[C@@H](O)C3)cc(CC2(Cl)CCC2)n1-c1ccc(C#N)cc1` (racemic) [Example 157B, (±)-4-(5-((1-Chlorocyclobutyl)methyl)-3-(2-((1S,2R,4R)-2-hydroxy-7-azabicyclo[2.2.1]heptan-7-yl)acetyl)-2-methyl-1H-pyrrol-1-yl)benzonitrile]: the IC50 is 0.05 to 0.5 µM.
Take `Cc1c(C(=O)CN2C3CCC2[C@@H](O)C3)cc(C(F)(F)F)n1-c1ccc(C#N)cc1` (mixture of isomers) [Example 109B, (±)-4-(3-(2-((2R)-2-Hydroxy-7-azabicyclo[2.2.1]heptan-7-yl)acetyl)-2-methyl-5-(trifluoromethyl)-1H-pyrrol-1-yl)benzonitrile]: the IC50 was 0.05 to 0.5 µM.
Turning to `Cc1c(C(=O)CN2[C@@H]3CC[C@H]2[C@@H](O)C3)cc(/C=C/Cn2cccn2)n1-c1ccc(C#N)cc1` (racemic) [Example 27B, (±)-4-(5-((E)-3-(1H-Pyrazol-1-yl)prop-1-en-1-yl)-3-(2-((1S,2S,4R)-2-hydroxy-7-azabicyclo[2.2.1]heptan-7-yl)acetyl)-2-methyl-1H-pyrrol-1-yl)benzonitrile], the IC50 was below 0.05 µM.
The same measure for `Cc1cc(C(=O)CN2C3CCC2[C@@H](O)C3)c(C)n1-c1ccc(C#N)c(F)c1` (mixture of isomers) [Example 90B, (±)-2-Fluoro-4-(3-(2-((2R)-2-hydroxy-7-azabicyclo[2.2.1]heptan-7-yl)acetyl)-2,5-dimethyl-1H-pyrrol-1-yl)benzonitrile]: below 0.05 µM.
Regarding `Cc1nc(Cc2cc(C(=O)CN3C4CCC3[C@@H](O)C4)c(C)n2-c2ccc(C#N)cc2)cs1` (mixture of isomers) [Example 41B, (±)-4-(3-(2-((2R)-2-Hydroxy-7-azabicyclo[2.2.1]heptan-7-yl)acetyl)-2-methyl-5-((2-methylthiazol-4-yl)methyl)-1H-pyrrol-1-yl)benzonitrile], the IC50 is below 0.05 µM.
